Laboratory results published in patent publication US9682961B2, “Quinazoline derivative” (CARNA BIOSCIENCES, INC., priority 2013, dated 2017).

Key:
[1] = tested on: human-derived colorectal cancer cell line HCT116; test: Antitumor effects in mice model subcutaneously transplanted with human-derived cancer cell line; format: in vivo; settings: oral, twice a day for 14 days, HCT116 nude mice
Procedure: The antitumor effects of the compound of the present invention were studied using nude mice subcutaneously transplanted with a human-derived colorectal cancer cell line HCT116, in which the Wnt signaling pathway was constantly activated.
HCT116 cells cultured in the same manner as in Test Example 2 were adjusted with D-PBS (NACALAI TESQUE, INC.) so as to have a cell concentration of 7.5×10^7/mL, and the cell suspension was ice cooled in a 15 mL tube. To the cell suspension, Matrigel (BD Biosciences Co.) was added in an amount of one-fourth of the cell suspension to prepare a preparation for cell transplantation. Into the back of BALB/c Slc-nu/nu mice (female, 8 weeks old, Japan SLC, Inc.), 0.1 mL of the preparation for cell transplantation was subcutaneously injected. […]
To the respective mice transplanted with cancer cells (nine in each group), forced oral administration of doses of the substance to be tested calculated from their body weights was performed twice a day (at intervals of six hours or more) for 14 days in total. Tumor volumes of the respective mice were calculated using the following formulas, and the antitumor effects were evaluated using a relative tumor volume ratio as an indicator.

c-MYC gene expression = test: Expression level of Wnt/β-catenin target gene c-MYC by real-time PCR in HCT116 cells; format: cell-based, human; settings: 10 and 3 μM, 24 hours
Procedure: Effects of the compound of the present invention on Wnt/β-catenin signaling activity were studied using the real-time PCR method as well as using as an indicator changes in expression levels of target genes of the Wnt/β-catenin signaling pathway. To a RPMI 1640 medium (NACALAI TESQUE, INC.), 10% FBS (AusGeneX PTY LTD.) and 1% Penicillin/Streptomycin (NACALAI TESQUE, INC.) were added to prepare a cell culture medium (hereinafter referred to as medium 1). In a T75 flask, HCT116 cells (ATCC No. CCL-247) were added to the medium 1. The cells in the flask were cultured in the 5% CO2 incubator. The cultured HCT116 cells were diluted with the medium 1 so as to have a cell concentration of 1.1×10^5 cells/mL. Into the T75 flask, 13.5 mL of the diluted cells was seeded, followed by culturing overnight in the 5% CO2 incubator. […] Total RNA concentration was measured by a microspectrophotometer (Thermo Fisher Scientific Inc., Nano Drop ND-1000). […] The results were calculated as the expression ratio of the target gene to the endogenous control gene (β-Actin) by the comparative Ct method using a DMSO group as a reference.

For `O[C@H]1CC[C@@H](Oc2cccc3cnc(Nc4ccc5nc[nH]c5c4)nc23)CC1` [Example 1, cis-4-({2-[(1H-benzo[d]imidazol-6-yl)amino]quinazolyn-8-yl}oxy)cyclohexanol], the “Tumor growth inhibition rate (TGI) on the last administration day” value ([1]; 40 mg/kg) was 42%, the “Tumor growth inhibition rate (TGI) on the last administration day” value ([1]; 80 mg/kg) was 70% and the c-MYC gene expression (c-MYC gene expression) was “inhibited the expression of AXIN2 and c-MYC”.
